In the kinase profiling compilation of Christmann-Franck et al. (2016):

Assays:
Experiment in all cases: KINOMEscan competition binding
Conditions in all cases: compound 10.0 µM
MATK (human) = MATK (human) (UniProt P42679)
BMPR2 (human) = BMPR2 (human) (UniProt Q13873)
ANKK1 (human) = ANKK1 (human) (UniProt Q8NFD2)
GRK7 (human) = GRK7 (human) (UniProt Q8WTQ7)
AAK1 (human) = AAK1 (human) (UniProt Q2M2I8)
MARK4 (human) = MARK4 (human) (UniProt Q96L34)
CASK (human) = CASK (human) (UniProt O14936)
PLK4 (human) = PLK4 (human) (UniProt O00444)
[1] = test system: PIK3CA (human), P42336 [E542K]
RPS6KA6 KD2 (human) = RPS6KA6 KD2 (human) (UniProt Q9UK32)
NEK2 (human) = NEK2 (human) (UniProt P51955)
TNIK (human) = TNIK (human) (UniProt Q9UKE5)
INSRR (human) = INSRR (human) (UniProt P14616)
MAP2K6 (human) = MAP2K6 (human) (UniProt P52564)
TLK2 (human) = TLK2 (human) (UniProt Q86UE8)
TAOK3 (human) = TAOK3 (human) (UniProt Q9H2K8)
PRKD1 (human) = PRKD1 (human) (UniProt Q15139)
DMPK (human) = DMPK (human) (UniProt Q09013)
MAPK14 (human) = MAPK14 (human) (UniProt Q16539)
DYRK1B (human) = DYRK1B (human) (UniProt Q9Y463)
EPHA5 (human) = EPHA5 (human) (UniProt P54756)
MET (human) = MET (human) (UniProt P08581)
MAP2K3 (human) = MAP2K3 (human) (UniProt P46734)
RIPK2 (human) = RIPK2 (human) (UniProt O43353)
TGFBR1 (human) = TGFBR1 (human) (UniProt P36897)
MERTK (human) = MERTK (human) (UniProt Q12866)
PIK3CD (human) = PIK3CD (human) (UniProt O00329)
MAP3K10 (human) = MAP3K10 (human) (UniProt Q02779)
STK38L (human) = STK38L (human) (UniProt Q9Y2H1)
SBK1 (human) = SBK1 (human) (UniProt Q52WX2)
TAOK2 (human) = TAOK2 (human) (UniProt Q9UL54)
STK32B (human) = STK32B (human) (UniProt Q9NY57)
DDR2 (human) = DDR2 (human) (UniProt Q16832)
IRAK1 (human) = IRAK1 (human) (UniProt P51617)
ABL2 (human) = ABL2 (human) (UniProt P42684)
SRC (human) = SRC (human) (UniProt P12931)
FYN (human) = FYN (human) (UniProt P06241)
SRMS (human) = SRMS (human) (UniProt Q9H3Y6)
MAP3K5 (human) = MAP3K5 (human) (UniProt Q99683)
TNNI3K (human) = TNNI3K (human) (UniProt Q59H18)

Chain of GRK7 (human) (Q8WTQ7 whole entry, looked up): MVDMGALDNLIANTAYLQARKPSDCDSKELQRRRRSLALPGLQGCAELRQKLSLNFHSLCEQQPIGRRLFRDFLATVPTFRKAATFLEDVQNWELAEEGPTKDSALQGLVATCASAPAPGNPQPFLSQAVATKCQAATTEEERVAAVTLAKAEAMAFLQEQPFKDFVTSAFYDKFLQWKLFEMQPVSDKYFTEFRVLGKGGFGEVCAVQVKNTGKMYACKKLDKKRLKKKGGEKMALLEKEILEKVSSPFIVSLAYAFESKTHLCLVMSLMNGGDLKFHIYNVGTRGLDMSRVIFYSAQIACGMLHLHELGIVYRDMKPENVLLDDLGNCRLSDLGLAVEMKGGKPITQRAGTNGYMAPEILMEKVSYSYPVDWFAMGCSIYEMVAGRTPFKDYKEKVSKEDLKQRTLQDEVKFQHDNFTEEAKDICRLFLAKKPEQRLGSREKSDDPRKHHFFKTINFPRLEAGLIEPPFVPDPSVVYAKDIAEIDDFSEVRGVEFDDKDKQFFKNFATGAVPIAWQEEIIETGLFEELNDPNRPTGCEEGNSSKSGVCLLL
Chain of MERTK (human) (Q12866 whole entry, looked up): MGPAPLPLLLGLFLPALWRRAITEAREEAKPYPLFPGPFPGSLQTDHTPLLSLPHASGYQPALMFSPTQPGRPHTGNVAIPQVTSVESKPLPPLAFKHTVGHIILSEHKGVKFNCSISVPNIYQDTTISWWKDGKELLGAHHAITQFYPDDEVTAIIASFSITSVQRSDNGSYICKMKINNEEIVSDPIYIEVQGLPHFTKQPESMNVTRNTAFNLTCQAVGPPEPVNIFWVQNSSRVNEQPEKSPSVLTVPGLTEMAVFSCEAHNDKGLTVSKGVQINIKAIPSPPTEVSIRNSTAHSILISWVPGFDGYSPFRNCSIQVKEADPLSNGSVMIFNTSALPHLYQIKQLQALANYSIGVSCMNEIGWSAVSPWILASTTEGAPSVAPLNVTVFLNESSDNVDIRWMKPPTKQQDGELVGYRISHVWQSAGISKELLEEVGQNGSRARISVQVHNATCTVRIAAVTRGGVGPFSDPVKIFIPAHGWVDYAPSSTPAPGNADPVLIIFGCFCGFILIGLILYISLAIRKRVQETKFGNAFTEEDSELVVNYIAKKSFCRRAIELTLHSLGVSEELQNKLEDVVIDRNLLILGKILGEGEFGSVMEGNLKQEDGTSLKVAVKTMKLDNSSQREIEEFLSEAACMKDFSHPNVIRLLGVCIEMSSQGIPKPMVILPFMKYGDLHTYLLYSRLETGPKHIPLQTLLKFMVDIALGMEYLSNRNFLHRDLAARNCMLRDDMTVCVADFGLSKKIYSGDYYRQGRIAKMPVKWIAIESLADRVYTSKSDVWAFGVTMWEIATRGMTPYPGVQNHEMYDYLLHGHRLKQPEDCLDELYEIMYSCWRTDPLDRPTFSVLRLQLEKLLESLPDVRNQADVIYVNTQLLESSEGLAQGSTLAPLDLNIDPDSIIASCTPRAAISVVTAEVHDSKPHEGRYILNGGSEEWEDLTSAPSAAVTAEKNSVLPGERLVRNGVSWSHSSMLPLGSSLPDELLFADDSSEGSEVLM
Chain of TAOK3 (human) (Q9H2K8 whole entry, looked up): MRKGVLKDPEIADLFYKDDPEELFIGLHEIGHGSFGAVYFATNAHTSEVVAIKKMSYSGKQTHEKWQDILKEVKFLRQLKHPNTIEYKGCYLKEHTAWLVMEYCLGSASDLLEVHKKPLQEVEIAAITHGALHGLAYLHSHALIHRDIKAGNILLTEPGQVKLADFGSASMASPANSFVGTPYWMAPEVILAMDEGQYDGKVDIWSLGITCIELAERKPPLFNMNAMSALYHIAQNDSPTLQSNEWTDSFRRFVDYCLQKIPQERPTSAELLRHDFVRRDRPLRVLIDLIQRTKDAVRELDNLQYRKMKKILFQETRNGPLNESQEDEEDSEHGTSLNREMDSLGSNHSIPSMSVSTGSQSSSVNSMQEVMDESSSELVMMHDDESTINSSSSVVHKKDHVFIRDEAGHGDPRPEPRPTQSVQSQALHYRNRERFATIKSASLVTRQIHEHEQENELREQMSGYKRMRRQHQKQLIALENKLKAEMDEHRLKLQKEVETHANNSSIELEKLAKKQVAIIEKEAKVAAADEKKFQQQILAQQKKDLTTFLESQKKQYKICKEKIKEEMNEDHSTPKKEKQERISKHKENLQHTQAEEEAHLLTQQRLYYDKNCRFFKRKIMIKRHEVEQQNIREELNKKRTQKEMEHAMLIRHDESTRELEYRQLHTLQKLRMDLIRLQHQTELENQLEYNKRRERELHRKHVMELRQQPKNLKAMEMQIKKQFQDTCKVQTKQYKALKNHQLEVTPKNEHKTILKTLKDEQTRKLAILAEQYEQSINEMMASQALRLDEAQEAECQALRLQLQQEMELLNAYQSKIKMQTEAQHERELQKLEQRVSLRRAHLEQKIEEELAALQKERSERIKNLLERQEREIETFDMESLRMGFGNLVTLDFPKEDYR
Chain of PIK3CA (human), P42336 [E542K] (P42336 whole entry E542K, looked up): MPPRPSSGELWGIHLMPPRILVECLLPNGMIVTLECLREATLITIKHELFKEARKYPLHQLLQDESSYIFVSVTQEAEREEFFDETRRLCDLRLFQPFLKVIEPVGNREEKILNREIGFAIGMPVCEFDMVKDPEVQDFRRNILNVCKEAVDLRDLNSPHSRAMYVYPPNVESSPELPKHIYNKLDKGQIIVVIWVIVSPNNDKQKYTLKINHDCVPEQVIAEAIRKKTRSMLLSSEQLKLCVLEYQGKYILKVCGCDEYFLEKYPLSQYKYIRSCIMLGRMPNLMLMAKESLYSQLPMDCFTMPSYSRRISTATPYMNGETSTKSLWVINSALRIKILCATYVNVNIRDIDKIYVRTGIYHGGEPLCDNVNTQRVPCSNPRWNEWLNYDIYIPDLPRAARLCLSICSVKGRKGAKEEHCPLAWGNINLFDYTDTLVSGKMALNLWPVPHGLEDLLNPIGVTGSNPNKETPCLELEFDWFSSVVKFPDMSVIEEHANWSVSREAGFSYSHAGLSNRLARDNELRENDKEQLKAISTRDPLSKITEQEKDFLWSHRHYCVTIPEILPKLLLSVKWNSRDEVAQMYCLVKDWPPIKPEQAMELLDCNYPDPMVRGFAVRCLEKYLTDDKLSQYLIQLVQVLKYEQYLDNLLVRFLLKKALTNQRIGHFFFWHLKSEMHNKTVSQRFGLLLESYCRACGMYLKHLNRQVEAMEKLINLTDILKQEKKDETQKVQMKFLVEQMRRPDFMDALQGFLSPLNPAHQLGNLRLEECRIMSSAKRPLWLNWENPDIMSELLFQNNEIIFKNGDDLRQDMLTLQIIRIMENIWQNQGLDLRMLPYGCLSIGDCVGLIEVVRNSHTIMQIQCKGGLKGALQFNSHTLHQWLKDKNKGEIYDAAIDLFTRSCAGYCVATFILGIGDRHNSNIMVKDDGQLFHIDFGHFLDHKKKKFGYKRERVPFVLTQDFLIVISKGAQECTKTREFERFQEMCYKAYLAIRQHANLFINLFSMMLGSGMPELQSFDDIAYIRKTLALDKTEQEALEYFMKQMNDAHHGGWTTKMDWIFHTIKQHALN
Chain of TLK2 (human) (Q86UE8 whole entry, looked up): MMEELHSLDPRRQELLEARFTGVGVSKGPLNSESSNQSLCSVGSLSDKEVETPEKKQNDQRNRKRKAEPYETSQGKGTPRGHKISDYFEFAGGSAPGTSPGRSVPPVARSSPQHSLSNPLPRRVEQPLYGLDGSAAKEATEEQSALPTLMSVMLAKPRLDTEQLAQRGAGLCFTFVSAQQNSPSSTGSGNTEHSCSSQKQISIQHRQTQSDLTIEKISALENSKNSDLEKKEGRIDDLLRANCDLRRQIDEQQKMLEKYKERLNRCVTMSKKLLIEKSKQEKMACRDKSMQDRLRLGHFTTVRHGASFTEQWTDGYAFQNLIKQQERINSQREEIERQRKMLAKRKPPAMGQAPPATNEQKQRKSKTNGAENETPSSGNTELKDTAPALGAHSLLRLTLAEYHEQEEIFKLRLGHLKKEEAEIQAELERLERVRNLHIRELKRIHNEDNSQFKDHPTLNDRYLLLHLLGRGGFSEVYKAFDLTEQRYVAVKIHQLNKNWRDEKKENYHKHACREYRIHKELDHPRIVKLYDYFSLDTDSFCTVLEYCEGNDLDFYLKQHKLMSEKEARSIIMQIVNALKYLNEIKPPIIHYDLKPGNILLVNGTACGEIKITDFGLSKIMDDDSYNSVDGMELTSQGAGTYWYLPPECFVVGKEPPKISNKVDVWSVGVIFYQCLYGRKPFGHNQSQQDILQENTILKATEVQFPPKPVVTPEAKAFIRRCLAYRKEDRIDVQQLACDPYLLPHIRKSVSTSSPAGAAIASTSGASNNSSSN
Chain of MAPK14 (human) (Q16539 whole entry, looked up): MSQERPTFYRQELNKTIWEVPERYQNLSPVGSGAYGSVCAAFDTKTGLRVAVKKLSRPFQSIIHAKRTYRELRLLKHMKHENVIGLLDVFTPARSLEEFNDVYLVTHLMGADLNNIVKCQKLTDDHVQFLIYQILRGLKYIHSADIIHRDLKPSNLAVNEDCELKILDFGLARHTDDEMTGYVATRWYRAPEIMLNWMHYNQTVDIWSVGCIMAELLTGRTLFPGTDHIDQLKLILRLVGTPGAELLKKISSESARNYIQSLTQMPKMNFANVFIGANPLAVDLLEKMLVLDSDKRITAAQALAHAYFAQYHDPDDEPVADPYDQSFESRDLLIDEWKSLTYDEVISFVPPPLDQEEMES
Chain of SBK1 (human) (Q52WX2 whole entry, looked up): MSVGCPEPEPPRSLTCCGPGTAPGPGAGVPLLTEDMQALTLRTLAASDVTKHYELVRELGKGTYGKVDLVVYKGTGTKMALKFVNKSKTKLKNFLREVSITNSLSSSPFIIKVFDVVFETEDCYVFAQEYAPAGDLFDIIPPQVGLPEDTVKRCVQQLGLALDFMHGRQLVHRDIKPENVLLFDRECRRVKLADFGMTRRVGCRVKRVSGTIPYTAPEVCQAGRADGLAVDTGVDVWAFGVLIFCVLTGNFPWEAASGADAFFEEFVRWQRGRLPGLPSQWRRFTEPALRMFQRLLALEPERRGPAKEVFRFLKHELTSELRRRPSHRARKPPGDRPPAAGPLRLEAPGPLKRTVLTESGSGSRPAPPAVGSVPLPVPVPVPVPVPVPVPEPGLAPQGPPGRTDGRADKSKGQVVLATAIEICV

| Structure (SMILES) | kinase still bound, per cent of control (MATK (human)) [%] | kinase still bound, per cent of control (BMPR2 (human)) [%] | kinase still bound, per cent of control (ANKK1 (human)) [%] | kinase still bound, per cent of control (GRK7 (human)) [%] | kinase still bound, per cent of control (AAK1 (human)) [%] | kinase still bound, per cent of control (MARK4 (human)) [%] | kinase still bound, per cent of control (CASK (human)) [%] | kinase still bound, per cent of control (PLK4 (human)) [%] | kinase still bound, per cent of control [1] [%] | kinase still bound, per cent of control (RPS6KA6 KD2 (human)) [%] | kinase still bound, per cent of control (NEK2 (human)) [%] | kinase still bound, per cent of control (TNIK (human)) [%] | kinase still bound, per cent of control (INSRR (human)) [%] | kinase still bound, per cent of control (MAP2K6 (human)) [%] | kinase still bound, per cent of control (TLK2 (human)) [%] | kinase still bound, per cent of control (TAOK3 (human)) [%] | kinase still bound, per cent of control (PRKD1 (human)) [%] | kinase still bound, per cent of control (DMPK (human)) [%] | kinase still bound, per cent of control (MAPK14 (human)) [%] | kinase still bound, per cent of control (DYRK1B (human)) [%] | further results |
| --- | --- | --- | --- | --- | --- | --- | --- | --- | --- | --- | --- | --- | --- | --- | --- | --- | --- | --- | --- | --- | --- |
| CC1=C(C(=O)Nc2cc3cn[nH]c3cc2F)C(c2ccc(C(F)(F)F)cc2)CC(=O)N1 (stereo not given) | 68 | 97 | 97 | 75 | 70 | 100 | 88 | 86 | 92 | 85 | 100 | 100 | 99 | 95 | 100 | 96 | 76 | 100 | 100 | 84 | kinase still bound, per cent of control (EPHA5 (human)): 86%; kinase still bound, per cent of control (MET (human)): 51%; kinase still bound, per cent of control (MAP2K3 (human)): 67%; kinase still bound, per cent of control (RIPK2 (human)): 77%; kinase still bound, per cent of control (TGFBR1 (human)): 100%; kinase still bound, per cent of control (MERTK (human)): 91%; kinase still bound, per cent of control (PIK3CD (human)): 98%; kinase still bound, per cent of control (MAP3K10 (human)): 92%; kinase still bound, per cent of control (STK38L (human)): 12%; kinase still bound, per cent of control (SBK1 (human)): 78%; kinase still bound, per cent of control (TAOK2 (human)): 96%; kinase still bound, per cent of control (STK32B (human)): 52%; kinase still bound, per cent of control (DDR2 (human)): 100%; kinase still bound, per cent of control (IRAK1 (human)): 90%; kinase still bound, per cent of control (ABL2 (human)): 86%; kinase still bound, per cent of control (SRC (human)): 83%; kinase still bound, per cent of control (FYN (human)): 82%; kinase still bound, per cent of control (SRMS (human)): 58%; kinase still bound, per cent of control (MAP3K5 (human)): 100%; kinase still bound, per cent of control (TNNI3K (human)): 78% |
| C=CC(=O)Nc1ccc(C(=O)c2sc(Nc3ccc(N4CCN(C)CC4)cc3OC)nc2N)cc1 | 25 | 100 | 100 | 100 | 11 | 85 | 100 | 43 | 100 | 0.7 | 100 | 6 | 78 | 96 | 83 | 23 | 39 | 12 | 2.7 | 2.6 | kinase still bound, per cent of control (EPHA5 (human)): 89%; kinase still bound, per cent of control (MET (human)): 83%; kinase still bound, per cent of control (MAP2K3 (human)): 69%; kinase still bound, per cent of control (RIPK2 (human)): 100%; kinase still bound, per cent of control (TGFBR1 (human)): 96%; kinase still bound, per cent of control (MERTK (human)): 100%; kinase still bound, per cent of control (PIK3CD (human)): 100%; kinase still bound, per cent of control (MAP3K10 (human)): 91%; kinase still bound, per cent of control (STK38L (human)): 68%; kinase still bound, per cent of control (SBK1 (human)): 85%; kinase still bound, per cent of control (TAOK2 (human)): 20%; kinase still bound, per cent of control (STK32B (human)): 71%; kinase still bound, per cent of control (DDR2 (human)): 100%; kinase still bound, per cent of control (IRAK1 (human)): 41%; kinase still bound, per cent of control (ABL2 (human)): 100%; kinase still bound, per cent of control (SRC (human)): 100%; kinase still bound, per cent of control (FYN (human)): 83%; kinase still bound, per cent of control (SRMS (human)): 66%; kinase still bound, per cent of control (MAP3K5 (human)): 100%; kinase still bound, per cent of control (TNNI3K (human)): 89% |
| COc1cc2ncnc(Nc3cccc(Cl)c3)c2cc1OC | 48 | 100 | 63 | 75 | 18 | 100 | 67 | 30 | 55 | 38 | 92 | 26 | 100 | 95 | 100 | 78 | 89 | 79 | 63 | 70 | kinase still bound, per cent of control (EPHA5 (human)): 55%; kinase still bound, per cent of control (MET (human)): 62%; kinase still bound, per cent of control (MAP2K3 (human)): 57%; kinase still bound, per cent of control (RIPK2 (human)): 19%; kinase still bound, per cent of control (TGFBR1 (human)): 88%; kinase still bound, per cent of control (MERTK (human)): 71%; kinase still bound, per cent of control (PIK3CD (human)): 71%; kinase still bound, per cent of control (MAP3K10 (human)): 100%; kinase still bound, per cent of control (STK38L (human)): 87%; kinase still bound, per cent of control (SBK1 (human)): 25%; kinase still bound, per cent of control (TAOK2 (human)): 76%; kinase still bound, per cent of control (STK32B (human)): 100%; kinase still bound, per cent of control (DDR2 (human)): 42%; kinase still bound, per cent of control (IRAK1 (human)): 5.6%; kinase still bound, per cent of control (ABL2 (human)): 34%; kinase still bound, per cent of control (SRC (human)): 9.9%; kinase still bound, per cent of control (FYN (human)): 81%; kinase still bound, per cent of control (SRMS (human)): 60%; kinase still bound, per cent of control (MAP3K5 (human)): 74%; kinase still bound, per cent of control (TNNI3K (human)): 38% |
